What all share (type): in vivo
The test system of assay [1] is Musca domestica. Nature of the assay: Knockdown test, Musca domestica (houseflies - adults). The note with it: cotton wool/sugar, 4 hours, read-out: grading of knockdown, MD/KD. The method, then: (§1) The activity of the Product was determined using a variety of insect and acarine pests. The Product was used in the form of liquid preparations containing 500, 250 or 100 parts per million (ppm) by weight of the Product. The preparations were made by dissolving the Product in acetone and diluting the solutions with water containing 0.01% by weight of a wetting agent sold under the trade name "LISSAPOL" NX until the liquid preparations contained the required concentratio of the Product. "Lissapol" is a Registered Trade Mark.
(§2) The test procedure adopted with regard to each pest was basically the same and comprised supporting a number of the pests on a medium which was usually a host plant or a foodstuff on which the pests feed, and treating either or both the pests and the medium with the preparations. The mortality of the pests was then assessed at periods usually varying from one to three days after the treatment.
In the case of the species Musca domestica (housefly), additional tests to determine the knockdown effect of the compounds were performed.
(§3) The results of the tests are given in Table IV for each of the Products, at the rate in parts per million given in the second column as a grading of mortality designated as A, B or C wherein A indicates 80-100% mortality or knockdown (70-100% in the case of Spodoptera exigua), B indicates 50-79% mortality or knockdown (50-69% in the case of Spodoptera exigua) and C indicates less than 50% mortality or knockdown.
(§4) In Table IV the pest organism used is designated by a letter code and the pest species, the support medium or food, and the type and duration of test is given in Table III.

In a further assay the test system is Diabrotica balteata. The experiment in a line: Insecticidal test, Diabrotica balteata (rootworm larvae), residual. The note with it: 72 h, filter paper/maize seed, 3 days, read-out: grading of mortality, DB. The procedure:
as §1, §2, §3, §4

The next assay has as its system Myzus persicae. The experiment in a line: Insecticidal test, Myzus persicae (aphids), contact. The note with it: 72 h, Chinese Cabbage leaf, 3 days, read-out: grading of mortality, MP. The procedure: as §1, §2, §3, §4
For assay [2], the system named is Musca domestica. The experiment in a line: Insecticidal test, Musca domestica (houseflies - adults), contact. The note with it: 24 h, cotton wool/sugar, 1 day, read-out: grading of mortality, MD. The procedure:
as §1, §2, §3, §4

Another assay concerns Nilaparvata lugens. Nature of the assay: Insecticidal test, Nilaparvata lugens (brown planthopper), contact. The note with it: 72 h, Cabbage leaf, 3 days, read-out: grading of mortality, NL. The procedure: as §1, §2, §3, §4
The subject of the next assay is Blattella germanica. Nature of the assay: Insecticidal test, Blattella germanica (cockroach nymphs), residual. The note with it: 72 h, plastic pot, 3 days, read-out: grading of mortality, BG. The procedure:
as §1, §2, §3, §4

For the next assay, the system named is Heliothis virescens. Nature of the assay: whole plant or invertebrate. The note with it: in Gossypium hirsutum, 72 h, read-out: grading of mortality, HV. The procedure: as §1, §2, §3, §4

Broadly, the mortality is the share of the test organisms that died.

For the molecule `OC(COCc1cccc(Oc2ccccc2)c1)(c1ccc(OC(F)(F)F)cc1)C(F)(F)F` (stereo not shown) [Compound 139, 1,1,1-trifluoro-2-(4-trifluoromethoxyphenyl)-3-(3-phenoxybenzyloxy)-propan-2-ol], the pest or weed control at 500 ppm in the assay on Musca domestica [1] was 80 to 100%. The mortality at 500 ppm with Diabrotica balteata is 80 to 100%; in the assay with Myzus persicae it was under 50%; in the assay on Musca domestica [2], 80 to 100%; in the assay on Nilaparvata lugens it was under 50%; in the assay with Blattella germanica, under 50%; in the assay on Heliothis virescens it was 80 to 100%.
As for `CCOc1ccc(C(Cl)(COCc2cccc(Oc3ccccc3)n2)C(F)(F)F)cc1` (stereo not shown) [Compound 41, 1,1,1-Trifluoro-2-chloro-2-(4-ethoxyphenyl)-3-(6-phenoxy-2-pyridylmethyloxy)propane], the pest or weed control at 500 ppm in the assay with Musca domestica [1] was in the range of 80 to 100%. For the same molecule, the mortality at 500 ppm was 80 to 100% in the assay with Diabrotica balteata; 80 to 100% in the assay on Myzus persicae; 80 to 100% with Musca domestica [2]; 80 to 100% with Nilaparvata lugens; under 50% in the assay with Blattella germanica; 80 to 100% in the assay on Heliothis virescens.
On to `CCOc1ccc(C(Cl)(COCc2ccc(F)c(Oc3ccccc3)c2)C(F)(F)F)cc1` (stereo not shown) [Compound 40, 1,1,1-Trifluoro-2-chloro-2-(4-ethoxyphenyl)-3-(3-phenoxy-4-fluorobenzyloxy)propane], for which the pest or weed control at 250 ppm in the assay on Musca domestica [1] is 80 to 100%. In addition, the mortality at 250 ppm with Diabrotica balteata, in the assay on Myzus persicae, in the assay on Musca domestica [2], in the assay with Nilaparvata lugens, in the assay on Blattella germanica and with Heliothis virescens was 80 to 100% each time.
For `CCOc1ccc(C(O)(COCc2c(F)c(F)c(C)c(F)c2F)C(F)(F)F)cc1` (stereo not shown) [Compound 114, 1,1,1-Trifluoro-2-(4-ethoxyphenyl)-3-(4-methyl-2,3,5,6-tetrafluorobenzyloxy)propan-2-ol], the pest or weed control at 100 ppm with Musca domestica [1] (100 ppm) is under 50%. Besides, the mortality at 100 ppm in the assay with Diabrotica balteata (100 ppm) is under 50%; in the assay on Myzus persicae (100 ppm), under 50%; in the assay on Musca domestica [2] (100 ppm), under 50%; in the assay with Nilaparvata lugens (100 ppm), 50 to 79%; in the assay with Blattella germanica (100 ppm), under 50%; in the assay on Heliothis virescens, under 50%.
On to `CCOc1ccc(C(O)(COCc2ccc(F)c(Oc3ccccc3)c2)C(F)(F)F)cc1` (stereo not shown) [Compound 113, 1,1,1-Trifluoro-2-(4-ethoxyphenyl)-3-(4-fluoro-3-phenoxybenzyloxy)propan-2-ol], for which the pest or weed control at 250 ppm in the assay on Musca domestica [1] was 80 to 100%. Moreover, the mortality at 250 ppm in the assay on Diabrotica balteata is 80 to 100%; in the assay on Myzus persicae it was under 50%; in the assay on Musca domestica [2] it was 50 to 79%; with Nilaparvata lugens, 50 to 79%; in the assay on Blattella germanica it was under 50%; in the assay with Heliothis virescens it was under 50%.
For `CCOc1ccc(C(F)(COCc2ccc(F)c(Oc3ccccc3)c2)C(F)(F)F)cc1` (stereo not shown) [Compound 77, 1,1,1,2-Tetrafluoro-2-(4-ethoxyphenyl)-3-(3-phenoxy-4-fluorobenzyloxy)propane], the pest or weed control at 250 ppm in the assay with Musca domestica [1] was 80 to 100%. Further, the mortality at 250 ppm in the assay on Diabrotica balteata, in the assay on Myzus persicae, with Musca domestica [2], with Nilaparvata lugens, in the assay with Blattella germanica and in the assay on Heliothis virescens was 80 to 100% throughout.
On to `CCOc1ccc(C(COCc2ccc(F)c(Oc3ccccc3)c2)(OC)C(F)(F)F)cc1` (stereo not shown) [Compound 150, 1,1,1-trifluoro-2-methoxy-2-(4-ethoxyphenyl)-3-(3-phenoxy-4-fluorobenzyloxy)propane], for which, in the assay on Musca domestica [1], the pest or weed control at 250 ppm was under 50%. Besides, the mortality at 250 ppm with Diabrotica balteata was 80 to 100%; in the assay with Myzus persicae, 50 to 79%; in the assay on Musca domestica [2], under 50%; in the assay on Nilaparvata lugens, under 50%; with Blattella germanica it was under 50%; in the assay with Heliothis virescens, 80 to 100%.

Source of the values: US5225607A, “Insecticidal ethers” (Imperial Chemical Industries PLC, priority 1985, dated 1993).
